Measurements reported in patent publication US7250445B1, “Anti-oxidant suppository for treating radiation proctopathy and other anorectal disorders” (priority 2005, dated 2007).

Assays:
[1] = tested on: radiation proctopathy; details: topical; cited from earlier work
[2] = tested on: radiation-induced anal ulceration; experiment: case of patient with AIDS and anal carcinoma with radiation-induced anal ulceration, oral vitamin A; type: in vivo, human; details: single patient
Excerpt: (§1) The present inventor recently described a dramatic case of the patient with AIDS and anal carcinoma with developed a large radiation-induced anal ulceration with marked debility. The patient required high dose opioid therapy for control of anal pain. […] Radiation proctopathy is a form of injury of the rectum from radiation therapy administered for pelvic cancers such as cancers of the prostate, uterus and ovary. The present inventor recently designed, conducted and published a randomized double-blinded trial comparing vitamin A in the form of retinol palmitate (10,000 IU by mouth for 90 days) to placebo in patients with radiation proctopathy. […] The other form of vitamin A, (beta carotene), when applied topically, have the potential to enhance the effectiveness of retinol palmitate for treating radiation proctopathy and other anorectal disorders.

[3] = tested on: radiation proctopathy; experiment: randomized double-blinded trial of vitamin A versus placebo in patients with radiation proctopathy; type: in vivo, human; details: retinol palmitate 10,000 IU by mouth for 90 days versus placebo
Excerpt: as §1

[4] = tested on: wound healing; details: following burn injury and surgeries; cited from earlier work

Compound | efficacy for radiation proctopathy [1] | persistence of healing and symptomatic relief ([2]; after twelve week oral course) | wound healing and symptoms ([2]; twelve week course, orally administered retinol palmitate) | rectal symptoms of radiation proctopathy [3] | wound healing [4]
sucralfate | appear to be ineffective | – | – | – | –
Nc1ccc(O)c(C(=O)O)c1 [5-ASA, 5-aminosalicylic acid] | appear to be ineffective | – | – | – | –
CCCCCCCCCCCCCCCC(=O)OC/C=C(C)/C=C/C=C(C)/C=C/C1=C(C)CCCC1(C)C [vitamin A, retinol palmitate] | – | persisted for more than six months | complete wound healing and symptomatic relief | significantly reduced rectal symptoms | accelerate wound healing
